The test system of test [1] is Plasmodium falciparum. As to the kind of experiment: Percent parasitemia after 0.75 mg/kg dose. The test is classed as functional, K1.
Test [2] deals with Plasmodium falciparum. As to the kind of experiment: Percent parasitaemia after 10 mg/kg oral dose. It is filed as functional, K1.
Test [3] relates to Plasmodium falciparum. As to the kind of experiment: Percent inhibition of Plasmodium falciparum FCM29 after 10 mg/kg oral dose. The test is classed as functional.
The test system of test [4] is Plasmodium falciparum. As to the kind of experiment: Percent inhibition of Plasmodium falciparum FCM29 after 0.75 mg/kg subcutaneous dose. It is filed as functional. The note with it: sc.
In test [5] the test system is Plasmodium falciparum. The test can be described thus: Percent parasitemia after 5 mg/kg peroral dose. It is filed as functional, organism-based. Also on record: dose 5 mg/kg. Particulars: K1, at 5 mg/kg.
The subject of test [6] is Plasmodium falciparum. The test can be described thus: Percent inhibition of Plasmodium falciparum FCM29 after 5 mg/kg oral dose. The test is classed as functional, organism-based. Also on record: dose 5 mg/kg. The note with it: K1, at 5 mg/kg.

As to `CCN(CC)CCCC(C)Nc1ccnc2cc(Cl)ccc12` (stereo not drawn) [CHLOROQUINE], the Parasitemia with Plasmodium falciparum [1] came to 32.2%; in the test with Plasmodium falciparum [2], 0.1%. The molecule further showed an inhibition in vivo at 10 mg/kg in the test with Plasmodium falciparum [3] of 99.8%. Further, the inhibition in vivo at 0.75 mg/kg in the test on Plasmodium falciparum [4] was determined as 17.2%.
With “Ferrocenoyl-strychnobrasiline derivative”, the Parasitemia in the test with Plasmodium falciparum [5] is 36.1%; in the test on Plasmodium falciparum [2] (K1, at 10 mg/kg), 38.4%. In addition, the inhibition is 7.2% in the test with Plasmodium falciparum [6] and 1.3% in the test with Plasmodium falciparum [3] (at 10 mg/kg).
